In patent US20230233569A1 (Revolution Medicines, Inc., priority 2020, published 2023):
Like-named read-outs stand apart in the source and are kept apart here.

How the values were obtained:
Assay in all cases: Ras-Raf disruption / FRET / MOA assay (BRAF RBD)
Assay type in all cases: biochemical
[1] = target: KRAS G12C (Homo sapiens, UniProt P01116+P62937, G12C); settings: with Cyclophilin A
Method in brief: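 His6-K-Ras G12C-GMPPNP (12.5 nM), GST-BRAF RBD (50 nM) and tagless Cyclophilin A (25 μM) incubated 3 h at 25 °C with compound (10-point 3-fold series from 30 μM), pH 7.3 HEPES buffer. Anti-His Eu/anti-GST APC added for 1.5 h; decreased TR-FRET ratio vs DMSO gives IC50.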

[2] = target: KRAS G12V (Homo sapiens, UniProt P01116+P62937, G12V); settings: with Cyclophilin A
Sequence of KRAS G12V (P01116 1-169 isoform P01116-2 G12V limits assumed): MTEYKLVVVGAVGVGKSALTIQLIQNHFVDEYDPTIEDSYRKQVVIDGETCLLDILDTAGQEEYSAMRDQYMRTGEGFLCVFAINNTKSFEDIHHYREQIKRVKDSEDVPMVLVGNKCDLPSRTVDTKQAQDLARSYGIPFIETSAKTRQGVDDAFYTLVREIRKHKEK
Sequence of KRAS G12V (P62937 whole entry): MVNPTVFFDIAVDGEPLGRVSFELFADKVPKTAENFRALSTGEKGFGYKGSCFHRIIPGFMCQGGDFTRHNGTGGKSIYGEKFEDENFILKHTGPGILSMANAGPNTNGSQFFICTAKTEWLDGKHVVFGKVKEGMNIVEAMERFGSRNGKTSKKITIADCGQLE
Method in brief: (§1)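 TR-FRET in 25 mM HEPES pH 7.3, 100 mM NaCl, 5 mM MgCl2, 0.1% BSA, 0.002% Tween20 with 25 μM Cyclophilin A, 12.5 nM His6-Ras-GMPPNP, 50 nM GST-BRAF RBD; compound 10-point 3-fold series from 30 μM. After 3 h at 25 °C, Eu anti-His/APC anti-GST added for 1.5 h; IC50 from ratio decrease versus DMSO.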

[3] = target: KRAS G13C (Homo sapiens, UniProt P01116+P62937, G13C); settings: with Cyclophilin A
Sequence of KRAS G13C (P01116 1-169 isoform P01116-2 G13C limits assumed): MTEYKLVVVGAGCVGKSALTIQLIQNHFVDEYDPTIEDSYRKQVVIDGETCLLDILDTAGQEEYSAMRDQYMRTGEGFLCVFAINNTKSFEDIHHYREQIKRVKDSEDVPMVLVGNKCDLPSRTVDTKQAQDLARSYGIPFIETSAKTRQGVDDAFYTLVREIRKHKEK
Sequence of KRAS G13C (P62937 whole entry): as the sequence (P62937 whole entry) above
Method in brief: as §1

[4] = target: KRAS WT (Homo sapiens, UniProt P01116+P62937); settings: with Cyclophilin A
Sequence of KRAS WT (P01116 1-169 isoform P01116-2 limits assumed): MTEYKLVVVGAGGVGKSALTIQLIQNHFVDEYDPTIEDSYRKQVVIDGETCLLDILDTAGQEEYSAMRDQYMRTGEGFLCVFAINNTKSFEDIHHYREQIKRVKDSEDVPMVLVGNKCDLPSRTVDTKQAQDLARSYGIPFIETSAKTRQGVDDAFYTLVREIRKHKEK
Sequence of KRAS WT (P62937 whole entry): as the sequence (P62937 whole entry) above
Method in brief: as §1

[5] = target: KRAS G13D (Homo sapiens, UniProt P01116+P62937, G13D); settings: with Cyclophilin A
Sequence of KRAS G13D (P01116 1-169 isoform P01116-2 G13D limits assumed): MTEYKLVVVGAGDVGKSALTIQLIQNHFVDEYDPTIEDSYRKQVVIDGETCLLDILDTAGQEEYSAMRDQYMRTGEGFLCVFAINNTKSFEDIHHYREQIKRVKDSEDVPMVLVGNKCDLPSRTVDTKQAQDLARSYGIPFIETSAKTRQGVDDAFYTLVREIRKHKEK
Sequence of KRAS G13D (P62937 whole entry): as the sequence (P62937 whole entry) above
Method in brief: as §1

[6] = target: KRAS G12S (Homo sapiens, UniProt P01116+P62937, G12S); settings: with Cyclophilin A
Sequence of KRAS G12S (P01116 1-169 isoform P01116-2 G12S limits assumed): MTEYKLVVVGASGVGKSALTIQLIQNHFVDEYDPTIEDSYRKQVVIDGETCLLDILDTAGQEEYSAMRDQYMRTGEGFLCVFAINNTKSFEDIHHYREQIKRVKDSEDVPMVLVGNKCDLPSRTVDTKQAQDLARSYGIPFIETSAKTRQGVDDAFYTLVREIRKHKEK
Sequence of KRAS G12S (P62937 whole entry): as the sequence (P62937 whole entry) above
Method in brief: as §1

[7] = target: KRAS G12D (Homo sapiens, UniProt P01116+P62937, G12D); settings: with Cyclophilin A
Sequence of KRAS G12D (P01116 1-169 isoform P01116-2 G12D limits assumed): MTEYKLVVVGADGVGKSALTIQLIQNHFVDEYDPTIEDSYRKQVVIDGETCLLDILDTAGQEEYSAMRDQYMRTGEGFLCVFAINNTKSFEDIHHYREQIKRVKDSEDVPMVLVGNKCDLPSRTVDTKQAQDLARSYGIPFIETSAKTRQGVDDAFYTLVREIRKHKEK
Sequence of KRAS G12D (P62937 whole entry): as the sequence (P62937 whole entry) above
Method in brief: as §1

[8] = target: NRAS G12C (Homo sapiens, UniProt P01111+P62937, G12C)
Sequence of NRAS G12C (P01111 whole entry G12C): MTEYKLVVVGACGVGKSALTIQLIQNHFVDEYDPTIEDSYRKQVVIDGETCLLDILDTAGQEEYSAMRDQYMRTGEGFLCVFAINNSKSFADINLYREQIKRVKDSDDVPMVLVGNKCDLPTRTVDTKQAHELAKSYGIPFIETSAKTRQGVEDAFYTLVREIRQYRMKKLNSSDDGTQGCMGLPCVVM
Sequence of NRAS G12C (P62937 whole entry): as the sequence (P62937 whole entry) above
Method in brief: as §1

[9] = Ras-Raf disruption, read-out: KRAS G12C FRET data IC50
[10] = Ras-Raf disruption, read-out: KRAS G12V FRET data IC50
[11] = Ras-Raf disruption, read-out: KRAS G13C FRET data IC50
[12] = Ras-Raf disruption, read-out: KRAS WT FRET data IC50
[13] = Ras-Raf disruption, read-out: KRAS G13D FRET data IC50
[14] = Ras-Raf disruption, read-out: KRAS G12S FRET data IC50
[15] = Ras-Raf disruption, read-out: KRAS G12D FRET data IC50
[16] = NRAS G12C, read-out: NRAS G12C FRET data IC50
[17] = KRAS G12C FRET data IC50, Ras-Raf disruption
[18] = KRAS G12V FRET data IC50, Ras-Raf disruption
[19] = KRAS G13C FRET data IC50, Ras-Raf disruption
[20] = KRAS WT FRET data IC50, Ras-Raf disruption
[21] = KRAS G13D FRET data IC50, Ras-Raf disruption
[22] = KRAS G12S FRET data IC50, Ras-Raf disruption
[23] = KRAS G12D FRET data IC50, Ras-Raf disruption
[24] = NRAS G12C FRET data IC50, NRAS G12C

Sequence of KRAS G12C (P01116 1-169 isoform P01116-2 G12C limits assumed): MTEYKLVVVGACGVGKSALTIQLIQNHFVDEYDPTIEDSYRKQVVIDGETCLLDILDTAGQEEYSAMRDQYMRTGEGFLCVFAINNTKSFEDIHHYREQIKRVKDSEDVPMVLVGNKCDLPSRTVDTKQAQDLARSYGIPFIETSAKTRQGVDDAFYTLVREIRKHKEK
Sequence of KRAS G12C (P62937 whole entry): as the sequence (P62937 whole entry) above

Row | Compound | IC50 [1, 9] [nM] | IC50 [2, 10] [nM] | IC50 [3, 11] [nM] | IC50 [4, 12] [nM] | IC50 [5, 13] [nM] | IC50 [6, 14] [nM] | IC50 [7, 15] [nM] | IC50 [8, 16] [nM] | IC50 [1, 17] [nM] | IC50 [2, 18] [nM] | IC50 [3, 19] [nM] | IC50 [4, 20] [nM] | IC50 [5, 21] [nM] | IC50 [6, 22] [nM] | IC50 [7, 23] [nM] | IC50 [8, 24] [nM]
1 | CCn1c(-c2cccnc2[C@H](C)OC)c2c3cc(ccc31)-c1cc(O)cc(c1)C[C@H](NC(=O)[C@H](C(C)C)N1CCC3(CCN(C(=O)[C@@H]4CN4)C3)C1=O)C(=O)N1CCC[C@H](N1)C(=O)OCC(C)(C)C2 (stereo partly shown) [Example 113] | < 10 | 10 to 100 | 10 to 100 | 10 to 100 | 10 to 100 | 10 to 100 | 10 to 100 | < 10 | – | – | – | – | – | – | – | –
2 | CCn1c(-c2cccnc2[C@H](C)OC)c2c3cc(ccc31)-c1cc(O)cc(c1)C[C@H](NC(=O)[C@H](C(C)C)N1CCC3(CN(C(=O)[C@H]4CN4)C3)C1=O)C(=O)N1CCC[C@H](N1)C(=O)OCC(C)(C)C2 [Example 115] | < 10 | 100 to 1000 | 10 to 100 | 10 to 100 | 10 to 100 | 100 to 1000 | 100 to 1000 | < 10 | – | – | – | – | – | – | – | –
3 | CCn1c(-c2cccnc2[C@H](C)OC)c2c3cc(ccc31)-c1cccc(c1)C[C@H](NC(=O)[C@H](C(C)C)N(C)C(=O)[C@H]1CC[C@H](N=C=NC34CC(C3)C4)C1)C(=O)N1CCC[C@H](N1)C(=O)OCC(C)(C)C2 [Example 123] | 100 to 1000 | 1000 to 10000 | 100 to 1000 | 1000 to 10000 | > 10000 | > 10000 | 1000 to 10000 | 100 to 1000 | – | – | – | – | – | – | – | –
4 | CCn1c(-c2cccnc2[C@H](C)OC)c2c3cc(ccc31)-c1cccc(c1)C[C@H](NC(=O)[C@H](C(C)C)N(C)C(=O)[C@H]1CC[C@H](N=C=NC(C)C)C1)C(=O)N1CCC[C@H](N1)C(=O)OCC(C)(C)C2 [Example 124] | 10 to 100 | 1000 to 10000 | 10 to 100 | 1000 to 10000 | > 10000 | > 10000 | 1000 to 10000 | 10 to 100 | – | – | – | – | – | – | – | –
5 | CCn1c(-c2cccnc2[C@H](C)OC)c2c3cc(ccc31)-c1cccc(c1)C[C@H](NC(=O)[C@H](C(C)C)N(C)C(=O)[C@H]1CC[C@H](N=C=NC(C)(C)C)C1)C(=O)N1CCC[C@H](N1)C(=O)OCC(C)(C)C2 [Example 125] | 10 to 100 | > 10000 | 100 to 1000 | > 10000 | > 10000 | > 10000 | 1000 to 10000 | 10 to 100 | – | – | – | – | – | – | – | –
6 | CCn1c(-c2cccnc2[C@H](C)OC)c2c3cc(ccc31)-c1cccc(c1)C[C@H](NC(=O)[C@H](C(C)C)N(C)C(=O)[C@H]1C[C@H](N=C=Nc3c(C)cccc3C)C1)C(=O)N1CCC[C@H](N1)C(=O)OCC(C)(C)C2 [Example 126] | 100 to 1000 | 1000 to 10000 | 100 to 1000 | 1000 to 10000 | 1000 to 10000 | 100 to 1000 | 1000 to 10000 | 100 to 1000 | – | – | – | – | – | – | – | –
7 | CCn1c(-c2cccnc2[C@H](C)OC)c2c3cc(ccc31)-c1cc(O)cc(c1)C[C@H](NC(=O)[C@H](C(C)C)N(C)C(=O)c1ccc(NC(=O)[C@H]3CN3)cn1)C(=O)N1CCC[C@H](N1)C(=O)OCC(C)(C)C2 [Example 127] | 100 to 1000 | 100 to 1000 | 10 to 100 | 100 to 1000 | 100 to 1000 | 10 to 100 | 100 to 1000 | 100 to 1000 | – | – | – | – | – | – | – | –
8 | CCn1c(-c2cccnc2[C@H](C)OC)c2c3cc(ccc31)-c1cc(O)cc(c1)C[C@H](NC(=O)[C@H](C(C)C)N1CC[C@@]3(CCN(C(=O)[C@@H]4N[C@@H]4C4CC4)C3)C1=O)C(=O)N1CCC[C@H](N1)C(=O)OCC(C)(C)C2 [Example 128] | 10 to 100 | 100 to 1000 | 10 to 100 | 100 to 1000 | 100 to 1000 | 100 to 1000 | 100 to 1000 | 10 to 100 | – | – | – | – | – | – | – | –
9 | CCn1c(-c2cccnc2[C@H](C)OC)c2c3cc(ccc31)-c1cc(O)cc(c1)C[C@H](NC(=O)[C@H](C(C)C)N1CC[C@@H](NC(=O)[C@@H]3CN3)C1=O)C(=O)N1CCC[C@H](N1)C(=O)OCC(C)(C)C2 [Example 129] | – | – | – | – | – | – | – | – | 10 to 100 | 100 to 1000 | < 10 | 10 to 100 | 10 to 100 | 10 to 100 | 100 to 1000 | 10 to 100
10 | CCn1c(-c2cccnc2[C@H](C)OC)c2c3cc(ccc31)-c1cc(O)cc(c1)C[C@H](NC(=O)[C@H](C(C)C)N1CC[C@@H](NC(=O)[C@H]3CN3)C1=O)C(=O)N1CCC[C@H](N1)C(=O)OCC(C)(C)C2 [Example 130] | – | – | – | – | – | – | – | – | 10 to 100 | 100 to 1000 | 10 to 100 | 10 to 100 | 10 to 100 | 10 to 100 | 100 to 1000 | 10 to 100
11 | CCn1c(-c2cccnc2[C@H](C)OC)c2c3cc(ccc31)-c1cc(O)cc(c1)C[C@H](NC(=O)[C@H](C(C)C)N(C)C(=O)c1ccc([C@@H]3CN3)cc1)C(=O)N1CCC[C@H](N1)C(=O)OCC(C)(C)C2 [Example 131] | 10 to 100 | 100 to 1000 | 10 to 100 | 100 to 1000 | 100 to 1000 | 100 to 1000 | 100 to 1000 | 10 to 100 | – | – | – | – | – | – | – | –
12 | CCn1c(-c2cccnc2[C@H](C)OC)c2c3cc(ccc31)-c1csc(n1)C[C@H](NC(=O)[C@H](C1CCCC1)N(C)C(=O)CN(C)C(=O)[C@H]1CN1)C(=O)N1CCC[C@H](N1)C(=O)OCC(C)(C)C2 [Example 132] | – | – | – | – | – | – | – | – | 100 to 1000 | 1000 to 10000 | 1000 to 10000 | 1000 to 10000 | 1000 to 10000 | 1000 to 10000 | 1000 to 10000 | 100 to 1000
13 | CCn1c(-c2cccnc2[C@H](C)OC)c2c3cc(ccc31)-c1cc(O)cc(c1)C[C@H](NC(=O)[C@H](C(C)C)N1CC[C@@]3(CCN(C[C@@H]4CN4)C3)C1=O)C(=O)N1CCC[C@H](N1)C(=O)OCC(C)(C)C2 [Example 138] | 10 to 100 | 1000 to 10000 | 10 to 100 | 10 to 100 | 10 to 100 | 100 to 1000 | 100 to 1000 | < 10 | – | – | – | – | – | – | – | –
14 | CCn1c(-c2cccnc2[C@H](C)OC)c2c3cc(ccc31)-c1cc(O)cc(c1)C[C@H](NC(=O)[C@H](C(C)C)N(C)C(=O)N1CCN(C(=O)[C@H]3CN3)C(=O)C1)C(=O)N1CCC[C@H](N1)C(=O)OCC(C)(C)C2 [Example 143] | 10 to 100 | 100 to 1000 | 10 to 100 | 10 to 100 | 10 to 100 | 10 to 100 | 100 to 1000 | 10 to 100 | – | – | – | – | – | – | – | –
15 | CCn1c(-c2cccnc2[C@H](C)OC)c2c3cc(ccc31)-c1cc(O)cc(c1)C[C@H](NC(=O)[C@H](C(C)C)N(C)C(=O)c1ccc([C@H]3CN3)cc1)C(=O)N1CCC[C@H](N1)C(=O)OCC(C)(C)C2 [Example 145] | 100 to 1000 | 100 to 1000 | 10 to 100 | 100 to 1000 | 100 to 1000 | 100 to 1000 | 1000 to 10000 | 100 to 1000 | – | – | – | – | – | – | – | –
16 | CCn1c(-c2cccnc2[C@H](C)OC)c2c3cc(ccc31)-c1cc(O)cc(c1)C[C@H](NC(=O)[C@H](C(C)C)N1CC[C@]3(CCN(C(=O)[C@H]4CN4)C3)C1=O)C(=O)N1CCC[C@H](N1)C(=O)OCC(C)(C)C2 [Example 146] | < 10 | 10 to 100 | 10 to 100 | 10 to 100 | 100 to 1000 | 10 to 100 | 10 to 100 | < 10 | – | – | – | – | – | – | – | –
17 | CCn1c(-c2cccnc2[C@H](C)OC)c2c3cc(ccc31)-c1cc(O)cc(c1)C[C@H](NC(=O)[C@H](C(C)C)N1CC[C@@]3(CCN(C(=O)[C@H]4CN4)C3)C1=O)C(=O)N1CCC[C@H](N1)C(=O)OCC(C)(C)C2 [Example 149] | < 10 | 10 to 100 | 10 to 100 | 10 to 100 | 10 to 100 | 10 to 100 | 100 to 1000 | < 10 | – | – | – | – | – | – | – | –
